Structures can show the parent of a compound that is named as a salt.
Target: T1, recombinant human TGR5 (Homo sapiens, UniProt Q8TDU6)
T1 construct: expressed in transfected cells
T1 sequence (Q8TDU6 1-330): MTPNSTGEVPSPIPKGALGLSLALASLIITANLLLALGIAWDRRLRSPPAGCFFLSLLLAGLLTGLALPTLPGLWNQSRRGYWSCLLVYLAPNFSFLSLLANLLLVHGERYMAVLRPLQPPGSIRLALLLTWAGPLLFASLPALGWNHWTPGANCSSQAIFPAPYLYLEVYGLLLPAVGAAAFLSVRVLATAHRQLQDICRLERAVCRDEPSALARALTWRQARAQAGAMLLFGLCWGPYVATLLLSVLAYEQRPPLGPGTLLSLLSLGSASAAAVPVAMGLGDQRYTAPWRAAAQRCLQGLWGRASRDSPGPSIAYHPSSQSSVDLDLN
Test: cAMP assay (cAMP accumulation, HTRF) in CHOK1 cells stably expressing TGR5
Assay type: cell-based
Details: CHOK1 cells stably expressing human TGR5, 30 minutes at RT, 1% DMSO
Description: The in vitro modulation of recombinant human TGR5 was determined as follows.
A human TGR5 expression construct of human TGR5 was integrated into the genome of a CHOK1 cell line (Invitrogen). Once a stable CHOK1 cell line was generated, the cells were incubated for 5-10 minutes in culture medium consisting of F-12 (Invitrogen#11765-047) supplemented with 10% fetal bovine serum.
On the day of the cAMP accumulation assay, cells stably expressing the […] TGR5 construct were centrifuged at 1000 rpm for 5 minutes. The medium was aspirated and the cells were resuspended in 5 mL of assay buffer (phosphate-buffered saline with Ca^2+ and Mg^2+, Invitrogen#14040). The cells were counted using 1:2 dilution and then adjusted to 0.4-0.5×10^6 cells/mL in assay buffer, if necessary. Isobutylmethylxanthine (IBMX, Sigma#I5879) was added via a 1:5000 dilution to make a 0.1 mM final concentration and then 10 μL of the media were transferred to each well of a 384 well poly-D-lysine coated solid white plate (BD #35-6661) pre-dotted with 100 nL of with the desired concentration of compound added from a concentrated stock dissolved in dimethyl sulfoxide (DMSO) to give a final concentration of 1% DMSO in the assay. The plates were covered and incubated for 30 minutes at RT. cAMP accumulation was measured using the CisBio homogeneous time resolved fluorescence (HTRF) assay kit (#62AM2PEC) following the manufacturer's protocol. Briefly, 5 μl each of the cAMP-HTRF fluorescence detection reagents were added to each well, and the samples were incubated for at least one hour at room temperature. Fluorescence was excited at 320 nm and measured at 665 and 620 nm using the Envision instrument (Perkin Elmer), the fluorescence ratio of 665/620 was calculated and converted to nanomolar concentrations of cAMP in each well by interpolation from a cAMP standard curve. The concentration-response curves and EC50 values were calculated with a four parameter logistic curve fit equation utilizing Excel/XLfit software (Microsoft and IDBS). The EC50 value was calculated as the concentration of agonist which increased the cAMP concentration to a value halfway between the baseline and the maximum.

SMILES | EC50
Cc1cccc(OCCCC(=O)N2CCCc3c(-c4cnn(Cc5cccc(N(C)C(=O)NCC[N+](C)(C)C)c5)c4)cccc32)c1C [Example 471, 2-(3-(3-((4-(1-(4-(2,3-Dimethylphenoxy)butanoyl)-1,2,3,4-tetrahydroquinolin-5-yl)-1H-pyrazol-1-yl)methyl)phenyl)-3-methylureido)-N,N,N-trimethylethanaminium, TFA salt] | 2170 nM
[2H]C([2H])(COC(=O)N1CCCOc2c(-c3cnn(Cc4c(F)cc(C(=O)O)cc4Cl)c3)cccc21)Oc1cccc(Cl)c1C [Example 418, 3-Chloro-4-((4-(5-((2-(3-chloro-2-methylphenoxy)-2,2-dideuteroethoxy)carbonyl)-2,3,4,5-tetrahydrobenzo[b][1,4]oxazepin-9-yl)-1H-pyrazol-1-yl)methyl)-5-fluorobenzoic acid] | 185 nM
Cc1c(Cl)cccc1OCCCC(=O)N1CCSc2c(-c3cnn(Cc4cccc(C(=O)NCCS(=O)(=O)O)c4)c3)cccc21 [Example 564, 2-(3-((4-(4-(4-(3-Chloro-2-methylphenoxy)butanoyl)-3,4-dihydro-2H-benzo[b][1,4]thiazin-8-yl)-1H-pyrazol-1-yl)methyl)benzamido) ethanesulfonic acid] | 49 nM
Cc1cccc(OCCCC(=O)N2CCCc3c(-c4cnn(CCNC(=O)C5(C(=O)O)CC5)c4)cccc32)c1C [Example 110H, 1-(2-(4-(1-(4-(2,3-Dimethylphenoxy)butanoyl)-1,2,3,4-tetrahydroquinolin-5-yl)-1H-pyrazol-1-yl)ethylcarbamoyl) cyclopropanecarboxylic acid] | 6560 nM
Cc1cccc(OCCCC(=O)N2CCCc3c(-c4cnn(CCNC(=O)C5(C(=O)NCCS(=O)(=O)O)CC5)c4)cccc32)c1C [Example 110K, 2-(1-(2-(4-(1-(4-(2,3-Dimethylphenoxy)butanoyl)-1,2,3,4-tetrahydroquinolin-5-yl)-1H-pyrazol-1-yl)ethylcarbamoyl)cyclopropanecarboxamido) ethanesulfonic acid] | 5000 nM
Cc1c(Cl)cccc1OCCOC(=O)N1C[C@@H]2C[C@@H]2c2c(-c3cnn(Cc4cc(OCCOCC(=O)O)ccc4Cl)c3)cccc21 [Example 448, 2-(2-(4-Chloro-3-((4-((1aR,7bS)-3-((2-(3-chloro-2-methylphenoxy)ethoxy)carbonyl)-1a,2,3,7b-tetrahydro-1H-cyclopropa[c]quinolin-7-yl)-1H-pyrazol-1-yl)methyl)phenoxy)ethoxy)acetic acid] | 183 nM
Cc1c(Cl)cccc1OCCOC(=O)N1C[C@@H]2C[C@@H]2c2c(-c3cnn(Cc4ccc(C(=O)O)cc4Cl)c3)cccc21 [Example 436, 3-Chloro-4-((4-((1aR,7bS)-3-((2-(3-chloro-2-methylphenoxy)ethoxy)carbonyl)-1a,2,3,7b-tetrahydro-1H-cyclopropa[c]quinolin-7-yl)-1H-pyrazol-1-yl)methyl)benzoic acid] | 171 nM
Cc1cccc(OCCCC(=O)N2C[C@@H]3C[C@@H]3c3c(-c4cnn(Cc5cccc(C(=O)N[C@H]6CCOC6=O)c5)c4)cccc32)c1C [Example 891, 3-((4-((1aR,7bS)-3-(4-(2,3-Dimethylphenoxy)butanoyl)-1a,2,3,7b-tetrahydro-1H-cyclopropa[c]quinolin-7-yl)-1H-pyrazol-1-yl)methyl)-N-((S)-2-oxotetrahydrofuran-3-yl)benzamide] | 26 nM
Cc1c(Cl)cccc1OCCCC(=O)N1Cc2ccccc2Oc2c(-c3cnn(Cc4c(F)cc(C(=O)NCCC(=O)O)cc4Cl)c3)cccc21 [Example 784, 3-(3-Chloro-4-((4-(10-(4-(3-chloro-2-methylphenoxy)butanoyl)-10,11-dihydrodibenzo[b,f][1,4]oxazepine-6-yl)-1H-pyrazol-1-yl)methyl)-5-fluorobenzamido)propanoic acid] | 200 nM
Cc1c(Cl)cccc1OCCCC(=O)N1C[C@@H]2C[C@@H]2c2c(-c3cnn(Cc4cccc(C(=O)NCC(=O)O)c4)c3)cccc21 (single isomer, unassigned) [Example 244] | 46 nM
Cc1cccc(OCCCC(=O)N2CCCc3c(-c4cnn(Cc5cccc(NC(=O)C(N)C(O)(C(F)(F)F)C(F)(F)F)c5)c4)cccc32)c1C (stereo not drawn) [Example 500, 2-Amino-N-(3-((4-(1-(4-(2,3-dimethylphenoxy)butanoyl)-1,2,3,4-tetrahydroquinolin-5-yl)-1H-pyrazol-1-yl)methyl)phenyl)-4,4,4-trifluoro-3-hydroxy-3-(trifluoromethyl) butanamide] | 195 nM
Cc1c(Cl)cccc1OCCCC(=O)N1CCSc2c(-c3cnn(Cc4cccc(C(=O)NCC(=O)O)c4)c3)cccc21 [Example 566, 2-(3-((4-(4-(4-(3-Chloro-2-methylphenoxy)butanoyl)-3,4-dihydro-2H-benzo[b][1,4]thiazin-8-yl)-1H-pyrazol-1-yl)methyl)benzamido)acetic acid] | 35 nM
Cc1cccc(OCCCC(=O)N2CCCc3c(-c4cnn(Cc5c(F)cc(C(=O)NCC(=O)O)cc5Cl)c4)cccc32)c1C [Example 177, 2-(3-Chloro-4-((4-(1-(4-(2,3-dimethylphenoxy)butanoyl)-1,2,3,4-tetrahydroquinolin-5-yl)-1H-pyrazol-1-yl)methyl)-5-fluorobenzamido)acetic acid] | 48 nM
Cc1cccc(OCCCC(=O)N2CC3CC3c3c(-c4cnn(Cc5cccc(N)c5)c4)cccc32)c1C (stereo not drawn) [Example 69G, 1-(7-(1-(3-Aminobenzyl)-1H-pyrazol-4-yl)-1a,2-dihydro-1H-cyclopropa[c]quinolin-3(7bH)-yl)-4-(2,3-dimethylphenoxy)butan-1-one] | 51 nM
Cc1c(Cl)cccc1OCCCC(=O)N1CCCOc2c(-c3cnn(Cc4cccc(NC(=O)NCC(=O)O)c4)c3)cccc21 [Example 521, 2-(3-(3-((4-(5-(4-(3-Chloro-2-methylphenoxy)butanoyl)-2,3,4,5-tetrahydrobenzo[b] [1,4]oxazepin-9-yl)-1H-pyrazol-1-yl)methyl)phenyl)ureido)acetic acid] | 176 nM
Cc1cccc(OCCCC(=O)N2CCCc3c(-c4cnn(CC(=O)C(C)(C)CC(=O)O)c4)cccc32)c1C [Example 493, 5-(4-(1-(4-(2,3-Dimethylphenoxy)butanoyl)-1,2,3,4-tetrahydroquinolin-5-yl)-1H-pyrazol-1-yl)-3,3-dimethyl-4-oxopentanoic acid] | 4150 nM
Cc1c(Cl)cccc1OCCCC(=O)N1CCCCc2c(-c3cnn(Cc4cccc(C(=O)NCCC(=O)O)c4)c3)cccc21 [Example 730, 3-(3-((4-(1-(4-(3-Chloro-2-methylphenoxy)butanoyl)-2,3,4,5-tetrahydro-1H-benzo[b]azepin-6-yl)-1H-pyrazol-1-yl)methyl)benzamido)propanoic acid] | 188 nM
Cc1cccc(OCCCC(=O)N2CCCc3c(-c4cnc(OCC(=O)O)nc4)cccc32)c1C [Example 124, 2-(5-(1-(4-(2,3-Dimethylphenoxy)butanoyl)-1,2,3,4-tetrahydroquinolin-5-yl)pyrimidin-2-yloxy)acetic acid, TFA salt] | 5000 nM
Cc1c(Cl)cccc1OCCCC(=O)N1C[C@@H]2C[C@@H]2c2c(-c3cnn(Cc4cccc(NC(=O)NCC(=O)O)c4)c3)cccc21 [Example 916, 2-(3-(3-((4-((1aR,7bS)-3-(4-(3-Chloro-2-methylphenoxy)butanoyl)-1a,2,3,7b-tetrahydro-1H-cyclopropa[c]quinolin-7-yl)-1H-pyrazol-1-yl)methyl)phenyl)ureido) acetic acid] | 37 nM
Cc1cccc(OCCCC(=O)N2CCSc3c(-c4cnn(Cc5c(F)cc(C(=O)NCCC(=O)O)cc5Cl)c4)cccc32)c1C [Example 575, 3-(3-Chloro-4-((4-(4-(4-(2,3-dimethylphenoxy)butanoyl)-3,4-dihydro-2H-benzo[b][1,4]thiazin-8-yl)-1H-pyrazol-1-yl)methyl)-5-fluorobenzamido) propanoic acid] | 49 nM
Cc1cccc(OCCCC(=O)N2CCOc3c(-c4cnn(Cc5cccc(C(=O)N[C@@H](CC(=O)O)C(=O)O)c5Cl)c4)cccc32)c1C [Example 624, (S)-2-(2-Chloro-3-((4-(4-(4-(2,3-dimethylphenoxy)butanoyl)-3,4-dihydro-2H-benzo[b][1,4]oxazin-8-yl)-1H-pyrazol-1-yl)methyl)benzamido)succinic acid] | 1380 nM
